Values quoted from earlier work as cited in PMC3066546, “Development of modified nucleosides that have supremely high anti-HIV activity and low toxicity and prevent the emergence of resistant HIV mutants” (Proceedings of the Japan Academy. Series B, Physical and …, 2011).
pEC50: −log10 of the molar value. Where two headings read alike, the source gives them in different places. Blank lines part the entries; values can stand above or below the molecule they belong to.

Legend:
HIV = system: HIV; design: method as in PMID 7764216; conditions: Table 1; for pEC50: anti-HIV
[1] = cytotoxic concentration, Table 1
HIV-1LAI = conditions: MTT assay, MT-4 cells
HXB2 (wild type HIV) = system: HXB2 (wild type HIV); design: method as in PMID 11087576, PMID 11577734, PMID 15200030; conditions: MAGI assay
HIV-1MDR = system: HIV-1MDR; design: method as in PMID 18487070; conditions: Table 7; read-out: Anti-HIV activity (MAGI assay, µg) HIV-1MDR
HIV-1M184V = system: HIV-1M184V; design: method as in PMID 18487070; conditions: Table 7; read-out: Anti-HIV activity (MAGI assay, µg) HIV-1M184V
[2] = system: 41/69/ 125/SG drug-resistant HIV; design: method as in PMID 11087576, PMID 11577734, PMID 15200030; conditions: MAGI assay
M184V drug-resistant HIV = system: M184V drug-resistant HIV; design: method as in PMID 11087576, PMID 11577734, PMID 15200030; conditions: MAGI assay
[3] = system: MDR (multidrug-resistant HIV); conditions: MAGI assay
HIV-1wild = system: HIV-1wild; design: method as in PMID 18487070; conditions: Table 7; read-out: Anti-HIV activity (MAGI assay, µg) HIV-1wild
M184I drug-resistant HIV = system: M184I drug-resistant HIV; design: method as in PMID 11087576, PMID 11577734, PMID 15200030; conditions: MAGI assay
L74V drug-resistant HIV = system: L74V drug-resistant HIV; design: method as in PMID 11087576, PMID 11577734, PMID 15200030; conditions: MAGI assay
KH65R drug-resistant HIV = system: KH65R drug-resistant HIV; design: method as in PMID 11087576, PMID 11577734, PMID 15200030; conditions: MAGI assay

pEC50 (HIV-1LAI; Table 2): 8.00
SMILES: Cc1cn([C@H]2C[C@H](O)[C@](CO)(N=[N+]=[N-])O2)c(=O)[nH]c1=O [4′-C-azidothymidine]
CC50 (MT-4 cells; Table 2): 8000 nM

pEC50 (HIV-1LAI; Table 2): 5.68
SMILES: Cc1cn([C@H]2C[C@H](O)[C@](CO)(CN=[N+]=[N-])O2)c(=O)[nH]c1=O [4′-C-azidomethylthymidine]
CC50 (MT-4 cells; Table 2): 333000 nM

pEC50 (HIV-1LAI; Table 3): 7.29
SMILES: N#C[C@]1(CO)O[C@@H](n2cnc3c(N)ncnc32)C[C@@H]1O [C00004 A]
CC50 (MT-4 cells; Table 3): 12000 nM

pEC50 (HIV-1LAI; Table 2): 5.15
SMILES: Cc1cn([C@H]2C[C@H](O)C(CO)(CO)O2)c(=O)[nH]c1=O [4′-C-hydroxymethylthymidine]
CC50 (MT-4 cells; Table 2): > 400000 nM

pEC50 (HIV-1LAI; Table 2): 8.70
SMILES: Cc1cn([C@H]2C[C@H](O)[C@@](C#N)(CO)O2)c(=O)[nH]c1=O [4′-C-cyanothymidine]
CC50 (MT-4 cells; Table 2): 1000 nM

pEC50 (HIV-1LAI; Table 3): 9.10
SMILES: N#C[C@]1(CO)O[C@@H](n2cnc3c(N)nc(N)nc32)C[C@@H]1O [C00004 2AA]
CC50 (MT-4 cells; Table 3): 34 nM

Further lines, the molecule ahead of its results:

SMILES: C[C@@]1(CO)C=C[C@H](n2cnc3c(N)ncnc32)O1 [C00002 Ad]
SI (CC50/EC50) (HIV): ∼1
pEC50 (HIV): < 3.30
CC50 [1]: > 500000 nM

SMILES: N#C[C@]1(CO)O[C@@H](n2ccc(N)nc2=O)C[C@@H]1O [4′-C-cyano-2′-deoxycytidine]
CC50 (MT-4 cells; Table 2): 170 nM
pEC50 (HIV-1LAI; Table 2): 8.92

SMILES: Nc1ccn([C@@H]2CS[C@H](CO)O2)c(=O)n1 [Compound 3TC, 2′,3′-dideoxy-3′-thia-L-cytidine, reference compound]
pEC50 (HXB2 (wild type HIV)): 6.15
pEC50 (HIV-1MDR): 5.55
pEC50 (HIV-1M184V): < 4.00
CC50 (MT-4 cells): > 100000 nM
pEC50 [2]: 5.00
pEC50 (M184V drug-resistant HIV): < 4.00
pEC50 [3]: 5.96
pEC50 (HIV-1wild): 6.00
pEC50 (HIV-1LAI; Table 2): 7.00
CC50 (Hela cells): > 100000 nM
pEC50 (M184I drug-resistant HIV): < 4.00

SMILES: CO[C@]1(CO)O[C@@H](n2cc(C)c(=O)[nH]c2=O)C[C@@H]1O [4′-C-methoxythymidine]
CC50 (MT-4 cells; Table 2): 200000 nM
pEC50 (HIV-1LAI; Table 2): 5.07

SMILES: N#C[C@]1(CO)O[C@@H](n2cnc3c(O)ncnc32)C[C@@H]1O [C00004 I]
CC50 (MT-4 cells; Table 3): 23000 nM
pEC50 (HIV-1LAI; Table 3): 7.29

SMILES: C[C@]1(CO)O[C@@H](n2ccc(N)nc2=O)C[C@@H]1O [C00001 Cy, 4′-C-methyl-2′-deoxycytidine]
pEC50 (L74V drug-resistant HIV): 8.21
pEC50 (HXB2 (wild type HIV)): 8.24
SI (CC50/EC50) (HIV): 1.8
pEC50 (HIV): 7.14
CC50 (MT-4 cells; Table 2): 1000 nM
pEC50 (M184V drug-resistant HIV): 6.70
pEC50 [3]: 8.48
pEC50 (KH65R drug-resistant HIV): 8.15
pEC50 (HIV-1LAI; Table 2): 7.82
CC50 (Hela cells; Table 4, Hela cells): > 200000 nM
CC50 [1]: 130 nM
pEC50 (M184I drug-resistant HIV): 6.13

SMILES: C[C@@]1(CO)CC[C@H](n2ccc(N)nc2=O)O1 [C00003 Cy]
SI (CC50/EC50) (HIV): 1
pEC50 (HIV): 4.57
CC50 [1]: 27000 nM

SMILES: Cc1cn([C@H]2C=C[C@@](C)(CO)O2)c(=O)[nH]c1=O [C00002 Th]
SI (CC50/EC50) (HIV): 16
pEC50 (HIV): 4.68
CC50 [1]: 330000 nM

SMILES: [N-]=[N+]=N[C@]1(CO)O[C@@H](n2cnc3c(N)ncnc32)C[C@@H]1O [4′-C-azido-2′-deoxyadenosine]
CC50 (MT-4 cells; Table 2): 50000 nM
pEC50 (HIV-1LAI; Table 2): 6.89

SMILES: CCC[C@]1(CO)O[C@@H](n2cc(C)c(=O)[nH]c2=O)C[C@@H]1O [4′-C-propylthymidine]
CC50 (MT-4 cells; Table 2): > 100000 nM
pEC50 (HIV-1LAI; Table 2): < 4.00

SMILES: C#C[C@]1(CO)O[C@@H](n2cnc3c(N)nc(Cl)nc32)C[C@@H]1O [4′Ed2ClA, 2′-deoxy-4′-C-ethynyl-2-chloroadenosine]
pEC50 (HIV-1MDR): 8.08
pEC50 (HIV-1M184V): 8.00
pEC50 (HIV-1wild): 8.72

SMILES: CC[C@]1(CO)O[C@@H](n2cc(C)c(=O)[nH]c2=O)C[C@@H]1O [4′-C-ethylthymidine]
pEC50 (HIV-1LAI; Table 2): < 3.40
